Measured values taken from patent US10874743B2, “IRAK degraders and uses thereof” (Kymera Therapeutics, Inc., priority 2017, dated 2020).

Experiments:
OCI-LY10 cells = experiment: OCI-LY-10 CTG cell viability assay (EC50); type: cell-based; details: Homo sapiens, 96 h, CellTiter-Glo cell viability, 4 days incubation, top concentration 10 μM, read-out: OCI-LY10 IRAK4 EC50
Description: A CTG cell viability assay using OCI-LY-10 cells was run to determine compound-mediated cell viability (EC50).
Compound-mediated viability effect on OCI-LY10 was quantitatively determined using the CellTiter-Glo® Luminescent Cell Viability Assay kit from Promega (Catalog number G7570) following manufacturer's recommended procedures. […] Compounds were then added to the assay plate with final top concentration of 10 μM and 1:3 dilution series with total of 9 doses. The final DMSO concentration was normalized to 0.2%. The assay plates were incubated at 37° C. for 4 days under 5% CO2. Then the assay plate was equilibrated at room temperature for 10 minutes. […] The data was then analyzed by software Prism 7.0 from GraphPad and the dose response curves were fit using a three-parameter logistic equation to calculate EC50.

IRAK4 = molecular target: T1, IRAK4 (Homo sapiens, UniProt Q9NWZ3); experiment: OCI-LY-10 MSD assay for IRAK4 DC50; type: cell-based; design: endogenous in cells; host or cells: OCI-LY10; details: OCI-LY10 cells, 4 hr incubation, concentration required to degrade 50% of protein
T1 sequence (Q9NWZ3 1-460): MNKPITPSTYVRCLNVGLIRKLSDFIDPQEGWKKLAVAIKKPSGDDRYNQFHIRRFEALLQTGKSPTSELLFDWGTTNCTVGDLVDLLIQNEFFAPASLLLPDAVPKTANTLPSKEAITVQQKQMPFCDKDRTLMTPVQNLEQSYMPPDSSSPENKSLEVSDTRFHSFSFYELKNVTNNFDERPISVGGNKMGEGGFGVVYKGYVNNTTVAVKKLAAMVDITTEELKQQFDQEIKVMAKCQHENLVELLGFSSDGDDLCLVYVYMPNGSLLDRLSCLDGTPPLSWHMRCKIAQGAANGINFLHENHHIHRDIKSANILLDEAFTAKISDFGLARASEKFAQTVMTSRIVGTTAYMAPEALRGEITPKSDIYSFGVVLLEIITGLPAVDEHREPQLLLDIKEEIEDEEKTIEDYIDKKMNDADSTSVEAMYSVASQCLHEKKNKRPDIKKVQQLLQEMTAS
How it was run: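 OCI-Ly10 cells were exposed to compound for 4 hr across a 3-fold, 8-point dilution series. Lysates were made in RIPA buffer, and IRAK4 remaining was measured by MSD sandwich immunoassay with anti-IRAK4 capture and detection antibodies. DC50 was taken from a four-parameter logistic fit.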

Row | Structure (SMILES) | EC50 (OCI-LY10 cells) | DC50 (IRAK4)
1 | Cn1cc(NC(=O)c2coc(-c3ccnc(NCC(F)(F)F)c3)n2)c(C(=O)NCCOCCOCCOCCCc2ccc3c(c2)n(C)c(=O)n3C2CCC(=O)NC2=O)n1 (centres unmarked) [I-463] | > 1 µM | > 1 µM
2 | Cn1cc(NC(=O)c2coc(-c3ccnc(NCC(F)(F)F)c3)n2)c(-c2cncc(C(=O)NCCOCCOCCCc3cccc4c3n(C)c(=O)n4C3CCC(=O)NC3=O)c2)n1 (centres unmarked) [I-472] | > 1 µM | > 1 µM
3 | C=C1N(C)c2c(CCCOCCCN(C)C(=O)c3ccc(-n4cc(NC(=O)c5coc(-c6ccnc(NCC7CC7)c6)n5)c(C(F)F)n4)cc3)cccc2N1C1CCC(=O)NC1=O (centres unmarked) [I-473] | 0.05 to 0.1 µM | < 0.05 µM
4 | CN(CCCOCCCc1cccc2c1oc(=O)n2C1CCC(=O)NC1=O)C(=O)c1ccc(-n2cc(NC(=O)c3coc(-c4ccnc(NCC5CC5)c4)n3)c(C(F)F)n2)cc1 (centres unmarked) [I-476] | 0.1 to 0.5 µM | < 0.05 µM
5 | CC(C)(CCOCCCc1cccc2c1oc(=O)n2C1CCC(=O)NC1=O)NC(=O)c1ccc(-n2cc(NC(=O)c3coc(-c4ccnc(NCC5CC5)c4)n3)c(C(F)F)n2)cc1 (centres unmarked) [I-478] | 0.1 to 0.5 µM | 0.05 to 0.1 µM
6 | CN(C[C@H]1CN(CCCc2ccc3c(c2)n(C)c(=O)n3C2CCC(=O)NC2=O)CCO1)C(=O)c1ccc(-n2cc(NC(=O)c3coc(-c4ccnc(NCC(F)(F)F)c4)n3)c(C(F)F)n2)cc1 (some centres unmarked) [I-487] | 0.05 to 0.1 µM | < 0.05 µM
7 | CN(CCCCOCCCCc1ccc2c(c1)n(C)c(=O)n2C1CCC(=O)NC1=O)C(=O)c1ccc(-n2cc(NC(=O)c3coc(-c4ccnc(NCC(F)(F)F)c4)n3)c(C(N)=O)n2)cc1 (centres unmarked) [I-489] | 0.5 to 1 µM | < 0.05 µM
8 | CN(CCCOCCCc1cccc2c1oc(=O)n2C1CCC(=O)NC1=O)C(=O)c1ccc(-n2cc(NC(=O)c3coc(-c4ccnc(NCC(F)(F)F)c4)n3)c(C(N)=O)n2)cc1 (centres unmarked) [I-495] | 0.5 to 1 µM | < 0.05 µM
9 | O=C1CCC(N2C[C@H](c3cccc(C#CCN4CCO[C@@H](CNC(=O)c5ccc(-n6cc(NC(=O)c7coc(-c8ccnc(NCC9CC9)c8)n7)c(C(F)F)n6)cc5)C4)c3)OC2=O)C(=O)N1 (some centres unmarked) [I-508] | 0.05 to 0.1 µM | < 0.05 µM
10 | O=C1CCC(N2C[C@H](c3ccc(C#CCN4CCO[C@@H](CNC(=O)c5ccc(-n6cc(NC(=O)c7coc(-c8ccnc(NCC9CC9)c8)n7)c(C(F)F)n6)cc5)C4)cc3)OC2=O)C(=O)N1 (some centres unmarked) [I-509] | < 0.05 µM | < 0.05 µM
11 | CN(C[C@H]1CN(CCCc2cccc3c2n(C)c(=O)n3C2CCC(=O)NC2=O)CCO1)C(=O)c1ccc(-n2cc(NC(=O)c3coc(-c4ccnc(NCC5CC5)c4)n3)c(C(F)F)n2)cc1 (some centres unmarked) [I-513] | < 0.05 µM | < 0.05 µM
12 | CN(C[C@@H]1CN(CCCc2cccc3c2n(C)c(=O)n3C2CCC(=O)NC2=O)CCO1)C(=O)c1ccc(-n2cc(NC(=O)c3coc(-c4ccnc(NCC5CC5)c4)n3)c(C(F)F)n2)cc1 (some centres unmarked) [I-514] | < 0.05 µM | < 0.05 µM
13 | Cn1c(=O)n(C2CCC(=O)NC2=O)c2ccc(CCCOCCOC3CCN(C(=O)c4ccc(-n5cc(NC(=O)c6coc(-c7ccnc(NCC8CC8)c7)n6)c(C(F)F)n5)cc4)CC3)cc21 (centres unmarked) [I-517] | > 1 µM | < 0.05 µM
14 | CN[C@@H](C)C(=O)N[C@H](C(=O)N1Cc2cc(OCCOCCOCCOCCOCCNC(=O)c3ccc(-n4cc(NC(=O)c5coc(-c6ccnc(NCC7CC7)c6)n5)c(C(F)F)n4)cc3)ccc2C[C@H]1C(=O)N[C@@H]1CCCc2ccccc21)C(C)(C)C [I-519, 2-[2-(Cyclopropylmethylamino)-4-pyridyl]-N-[3-(difluoromethyl)-1-[4-[2-[2-[2-[2-[2-[[(3S)-2-[(2S)-3,3-dimethyl-2-[[(2S)-2-(methylamino)propanoyl]amino]butanoyl]-3-[[(1R)-tetralin-1-yl]carbamoyl]-3,4-dihydro-1H-isoquinolin-7-yl]oxy]ethoxy]ethoxy]ethoxy]ethoxy]ethylcarbamoyl]phenyl]pyrazol-4-yl]oxazole-4-carboxamide] | 0.5 to 1 µM | 0.5 to 1 µM
15 | CN[C@@H](C)C(=O)N[C@H](C(=O)N1Cc2cc(OCCOCCOCCOCCOCCOCCNC(=O)c3ccc(-n4cc(NC(=O)c5coc(-c6ccnc(NCC7CC7)c6)n5)c(C(F)F)n4)cc3)ccc2C[C@H]1C(=O)N[C@@H]1CCCc2ccccc21)C(C)(C)C [I-520, 2-[2-(Cyclopropylmethylamino)-4-pyridyl]-N-[3-(difluoromethyl)-1-[4-[2-[2-[2-[2-[2-[2-[[(3S)-2-[(2S)-3,3-dimethyl-2-[[(2S)-2-(methylamino)propanoyl]amino]butanoyl]-3-[[(1R)-tetralin-1-yl]carbamoyl]-3,4-dihydro-1H-isoquinolin-7-yl]oxy]ethoxy]ethoxy]ethoxy]ethoxy]ethoxy]ethylcarbamoyl]phenyl]-pyrazol-4-yl]oxazole-4-carboxamide] | > 1 µM | 0.5 to 1 µM
16 | CN[C@@H](C)C(=O)N[C@H](C(=O)N1Cc2cc(OCCOCCOCCOCCNC(=O)c3ccc(-n4cc(NC(=O)c5coc(-c6ccnc(NCC7CC7)c6)n5)c(C(F)F)n4)cc3)ccc2C[C@H]1C(=O)N[C@@H]1CCCc2ccccc21)C(C)(C)C [I-521] | > 1 µM | > 1 µM
17 | Cn1cc(NC(=O)c2coc(-c3ccnc(NCC(F)(F)F)c3)n2)c(CNCCOCCOCCOCCOCCOCCNc2cccc3c2C(=O)N(C2CCC(=O)NC2=O)C3=O)n1 (centres unmarked) [I-522] | > 1 µM | > 1 µM
18 | Cn1c(=O)n(C2CCC(=O)NC2=O)c2cccc(CCCCOCCCCNCc3ccc(-n4cc(NC(=O)c5coc(-c6ccnc(NCC7CC7)c6)n5)c(C(F)F)n4)cc3)c21 (centres unmarked) [I-523] | < 0.05 µM | 0.05 to 0.1 µM
19 | CN(CC(=O)N(C)CC(=O)N(C)CC(=O)N(C)CCCc1cccc2c1n(C)c(=O)n2C1CCC(=O)NC1=O)Cc1nn(C)cc1NC(=O)c1coc(-c2ccnc(NCC(F)(F)F)c2)n1 (centres unmarked) [I-525] | > 1 µM | > 1 µM
20 | O=C1CCC(N2Cc3cc(CNC(=O)NCCOCCOCCNCc4ccc(-n5cc(NC(=O)c6coc(-c7ccnc(NCC8CC8)c7)n6)c(C(F)F)n5)cc4)ccc3C2=O)C(=O)N1 (centres unmarked) [I-529] | 0.05 to 0.1 µM | 0.05 to 0.1 µM

Continued, values first:

Row | EC50 (OCI-LY10 cells) | DC50 (IRAK4) | Structure (SMILES)
21 | < 0.05 µM | < 0.05 µM | Cn1c(=O)n(C2CCC(=O)NC2=O)c2ccc(CCCOCCOCCNC(=O)c3ccc(-n4cc(NC(=O)c5coc(-c6ccnc(NCC7CC7)c6)n5)c(C(F)F)n4)cn3)cc21 (centres unmarked) [I-461]
22 | < 0.05 µM | < 0.05 µM | O=C1CCC(n2c(=O)oc3cc(CCCOCCOCCNC(=O)c4ccc(-n5cc(NC(=O)c6coc(-c7ccnc(NCC8CC8)c7)n6)c(C(F)F)n5)cc4)ccc32)C(=O)N1 (centres unmarked) [I-462]
23 | < 0.05 µM | < 0.05 µM | Cn1c(=O)n(C2CCC(=O)NC2=O)c2ccc(CCCOCCOCCNC(=O)c3ccc(-n4cc(NC(=O)c5coc(-c6ccnc(NCC7CC7)c6)n5)c(C(F)F)n4)cc3F)cc21 (centres unmarked) [I-470]
24 | < 0.05 µM | < 0.05 µM | O=C1CCC(n2c(=O)oc3c(CCCOCCCNC(=O)c4ccc(-n5cc(NC(=O)c6coc(-c7ccnc(NCC8CC8)c7)n6)c(C(F)F)n5)cc4)cccc32)C(=O)N1 (centres unmarked) [I-475]
25 | < 0.05 µM | < 0.05 µM | CN(CCCOCCCc1ccc2c(c1)n(C)c(=O)n2C1CCC(=O)NC1=O)C(=O)c1ccc(-n2cc(NC(=O)c3coc(-c4ccnc(NCC5CC5)c4)n3)c(C(F)F)n2)cc1 (centres unmarked) [I-477]
26 | < 0.05 µM | < 0.05 µM | O=C1CCC(n2c(=O)oc3c(CCCOCCCNC(=O)c4ccc(-n5cc(NC(=O)c6coc(-c7ccnc(NCC8CC8)c7)n6)c(C(F)F)n5)cn4)cccc32)C(=O)N1 (centres unmarked) [I-479]
27 | < 0.05 µM | < 0.05 µM | CN(C[C@@H]1CN(CCCc2ccc3c(c2)n(C)c(=O)n3C2CCC(=O)NC2=O)CCO1)C(=O)c1ccc(-n2cc(NC(=O)c3coc(-c4ccnc(NCC5CC5)c4)n3)c(C(F)F)n2)cc1 (some centres unmarked) [I-488]
28 | < 0.05 µM | < 0.05 µM | CN(C[C@H]1CN(CCCc2ccc3c(c2)n(C)c(=O)n3C2CCC(=O)NC2=O)CCO1)C(=O)c1ccc(-n2cc(NC(=O)c3coc(-c4ccnc(NCC5CC5)c4)n3)c(C(F)F)n2)cc1 (some centres unmarked) [I-490]
29 | < 0.05 µM | 0.05 to 0.1 µM | CN(CCCCOCCCCc1ccc2c(c1)n(C)c(=O)n2C1CCC(=O)NC1=O)C(=O)c1ccc(-n2cc(NC(=O)c3coc(-c4ccnc(NCC5CC5)c4)n3)c(C(F)F)n2)cc1 (centres unmarked) [I-491]
30 | < 0.05 µM | < 0.05 µM | CN(CC1CCN(CCC#Cc2ccc3c(c2)n(C)c(=O)n3C2CCC(=O)NC2=O)CC1)C(=O)c1ccc(-n2cc(NC(=O)c3coc(-c4ccnc(NCC5CC5)c4)n3)c(C(F)F)n2)cc1 (centres unmarked) [I-504]
31 | < 0.05 µM | < 0.05 µM | Cn1c(=O)n(C2CCC(=O)NC2=O)c2ccc(CN3CCN(CCO[C@H]4C[C@H](NC(=O)c5ccc(-n6cc(NC(=O)c7coc(-c8ccnc(NCC9CC9)c8)n7)c(C(F)F)n6)cc5)C4)CC3)cc21 (some centres unmarked) [I-506]
